Reference: US20240043442A1, “SELECTIVE ESTROGEN RECEPTOR DEGRADERS AND USES THEREOF” (InventisBio LLC, priority 2016, published 2024)
Read-outs that look alike come from different tables or passages of the source.

Experiments:
[1] = system: breast cancer cell line MCF-7; experiment: MCF-7 cell growth study (celltiter-glo luminescent viability assay); format: cell-based, human; conditions: MCF-7 cells, 6 days incubation, read-out: IC50 (nM), cell growth inhibition;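 further: viability read by luminescence after compound exposure, relative to DMSO vehicle-treated wells on the same plate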
Protocol: Compound activity was analyzed using celltiter-glo luminescent viability assay (Promega #G7572) in breast cancer cell line MCF-7. Cells grown in log phase are trypsinized and seeded into a 96-well cell culture plate at a density of 2×10^3 per well and incubated overnight at 37° C. with 5% CO2 in humidified culture chamber. The next day, compounds were prepared in 100% DMSO and were serially diluted and added into cells in the following final concentrations: 316, 100, 31.6, 10, 3.16, 1, 0.32, 0.1, 0.03, 0.01, 0.003 and 0.001 nM. As a control, same volume and concentration of DMSO vehicle control solution was added to the control wells in each plate. The cells were incubated with compounds at 37° C. culture chamber for 6 days. Promega's celltiter-glo kit was used to analyze the cell viability, according to manufacture's instruction. Briefly, fifty microliter of celltiter-glo reagent was added to each well, plate (covered with aluminum foil) was gently vibrated for 10 min to induce cell lysis at room temperature. Luminescence was measured using a SPECTRAmax i3 reader.

pooled human hepatocytes = experiment: Human hepatocyte clearance study; format: in vitro ADME; conditions: for Human Hepatocyte Remaining Percentage @ 120 min (%): human hepatocytes 0.5x10^6 viable cells/mL; for Human In vitro Clint (μL/min/10^6 cells) / Human In vitro T1/2 / Human Scale-up Clint: human hepatocytes; for Human Scale-up Clint: scaling factor 2544.3
Protocol: (§1) The in vitro hepatocyte clearance of compound described here was studied using pooled human hepatocytes purchased from BioreclamationlVT (Westbury, NY, Cat #X008001, Lot #TQJ). Assay was conducted according to manufacture's instruction. Briefly, mM tock solutions of test compound and positive control (Verapamil) were prepared in 100% DMSO. Thawing media (50 mL) used in the study consists of: 31 mL Williams E medium (GIBCO Cat #12551-032); 15 mL isotonic percoll (GE Healthcare Cat #17-0891-09); 500 uL 100×GlutaMax (GIBCO Cat #35050); 750 uL HEPES (GIBCO Cat #15630-080); 2.5 mL FBS (Corning Cat #35-076-CVR); 50 uL human insulin (GIBCO Cat #12585-014) and 5 uL dexamethasone (NICPBP). Incubation media is made of Williams E medium supplemented with 1×GlutaMax. Thawing medium and supplement incubation medium (serum-free) were placed in a 37° C. water bath for at least 15 minutes prior to use. Compound stock solutions were diluted to 100 μM by combining 198 μt of 50% acetonitrile/50% water and 2 μL of 10 mM stock solution. Verapamil was use as positive control in the assay. Vials of cryopreserved hepatocytes were removed from storage and thawed in a 37° C. water bath with gentle shaking. Contents of the vial were poured into the 50 mL thawing medium conical tube. Vials were centrifuged at 100 g for 10 minutes at room temperature. Thawing medium was aspirated and hepatocytes were re-suspended with serum-free incubation medium to yield ˜1.5×10^6 cells/mL. Hepatocyte viability and density were counted using a Trypan Blue exclusion, and then cells were diluted with serum-free incubation medium to a working cell density of 0.5×10^6 viable cells/mL. Then, a portion of the hepatocytes at 0.5×10^6 viable cells/mL was boiled for 5 min prior to adding to the plate as negative control to eliminate the enzymatic activity so that little or no substrate turnover should be observed. The boiled hepatocytes were used to prepare negative samples. Aliquots of 198 μL hepatocytes were dispensed into each well of a 96-well non-coated plate. The plate was placed in the incubator on an orbital shaker at 500 rpm for approximately 10 minutes. Aliquots of 2 μL of the 100 μM test compound or positive control were added into respective wells of the non-coated 96-well plate to start the reaction. This assay was performed in duplicate. The plate was incubated in the incubator on an orbital shaker at 500 rpm for the designed time points. Twenty-five microliter of contents were transferred and mixed with 6 volumes (150 μL) of cold acetonitrile with IS (200 nM imipramine, 200 nM labetalol and 200 nM diclofenac) to terminate the reaction at time points of 0, 15, 30, 60, 90 and 120 minutes. Samples were centrifuged at 3,220 g for 25 minutes and aliquots of 150 μL of the supernatants was used for LC-MS/MS analysis. For data analysis, all calculations were carried out using Microsoft Excel. Peak areas were determined from extracted ion chromatograms. The in vitro half-life (t1/2) of parent compound was determined by regression analysis of the percent parent disappearance vs. time curve. The in vitro half-life (in vitro t1/2) was determined from the slope value: in vitro t1/2=0.693/k. […] Scaling factors for in vivo intrinsic clearance prediction using human hepatocytes are listed as: liver weight (g liver/kg body weight): 25.7; hepatocyte concentration (10^6 cells/g liver): 99; scaling factor: 2544.3.

[2] = Human hepatocyte clearance study; format: in vitro ADME; conditions: pooled cryopreserved human hepatocytes (suspension); for hepatocyte CLint at 1 µM / half-life at 1 µM: human; for hepatocyte CLint at 1 µM: read-out: Human In vitro Clint (μL/min/10^6 cells); for half-life at 1 µM: read-out: Human In vitro T1/2; for CLint scaled at 1 µM: human hepatocytes, scaling factor 2544.3, read-out: Human Scale-up Clint
Protocol: as §1

ER = ER (Homo sapiens (Human), UniProt P03372); experiment: MCF-7 ER degradation assay (high content imaging); format: cell-based; conditions: MCF-7 cells, 1 nM compound, DMSO control as baseline; for MCF7 ER Degradation at 4 hr (%): 4 hours treatment; for MCF7 ER Degradation at 24 hr (%): 24 hours treatment
Chain of ER (P03372 whole entry): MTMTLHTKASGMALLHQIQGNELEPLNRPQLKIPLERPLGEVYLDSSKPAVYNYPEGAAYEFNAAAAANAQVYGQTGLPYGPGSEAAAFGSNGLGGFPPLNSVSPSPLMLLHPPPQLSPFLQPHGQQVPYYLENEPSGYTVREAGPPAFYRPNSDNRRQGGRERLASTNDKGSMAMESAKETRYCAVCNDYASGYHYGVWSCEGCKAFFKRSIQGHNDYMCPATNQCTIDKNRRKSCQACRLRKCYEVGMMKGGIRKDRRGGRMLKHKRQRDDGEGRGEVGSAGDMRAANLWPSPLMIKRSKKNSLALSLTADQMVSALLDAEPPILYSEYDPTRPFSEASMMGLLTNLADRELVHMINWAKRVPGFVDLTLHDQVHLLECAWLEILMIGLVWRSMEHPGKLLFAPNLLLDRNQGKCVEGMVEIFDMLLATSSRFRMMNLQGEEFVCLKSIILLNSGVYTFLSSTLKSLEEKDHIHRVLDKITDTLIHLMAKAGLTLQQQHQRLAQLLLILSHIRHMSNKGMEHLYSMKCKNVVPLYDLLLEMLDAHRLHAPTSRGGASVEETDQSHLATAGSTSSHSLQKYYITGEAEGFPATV
Protocol: The level of ER degradation by SERD described in this patent was analyzed by cell based high content imaging method. […] Then, 1 μL of compound solution (in DMSO) was added to the cells to make a final concentration of 1 nM per each well of treated cells. DMSO at the same final concentration (%) per each well was used to serve as negative control on each plate. After 4 hours or 24 hours of treatment at 37° C. with 5% CO2, the cells were fixed and permeabilized. Media from each well was aspirated and cells were gently washed with 1×PBS for 5 minutes and the wash procedure was repeated 3 times. Cells was then fixed with 4% formaldehyde freshly made in 1×PBS at room temperature for 20 minutes, followed by gentle washing with 1×PBS, 3 times for 5 minute each. The assay plate was incubated with 200 μl of 1×PBS containing 0.2% Triton-X100 for 5 minutes at room temperature, cells were then washed again with 1×PBS 3 times for 5 minutes each. After this, cells were incubated with the blocking buffer (1×PBS with 5% BSA) at room temperature for 1 hour. For immunostaining, blocking buffer was removed and primary anti-ER antibody (ER1D5, Santa Cruz) diluted in blocking buffer (1:400) was added to each well and cells were incubated overnight at 4° C. The next day, cells were washed with 1×PBS for 3 times with 5 minute each. […] Cells were washed with 1×PBS for 3 times with 5 minute each time. Cells were incubated with DAPI (Beyotime; 1 μg/ml) for 10 minutes and washed with 1×PBS for 3 times with 5 minute each time. […] SERD induced ER degradation in the MCF-7 cells were measured using DMSO negative control as the baseline.

IC50 ([1]; Homo sapiens, MCF7, 144 h)	IC50 [1]	SMILES	further results
0.9 nM		C[C@@H]1Cc2c([nH]c3ccccc23)[C@@H](c2c(F)cc(/C=C/C(=O)O)cc2F)N1CC(C)(F)F [Compound 29]	Human Hepatocyte Remaining Percentage @ 120 min (%) (pooled human hepatocytes): 83%; hepatocyte CLint at 1 µM [2]: 2.4 µL/min/1e6 cells; half-life at 1 µM [2]: 9.52 h; CLint scaled at 1 µM [2]: 6.2 mL/min/kg
8.9 nM		CC1Cc2c(oc3ccccc23)C(c2c(Cl)cc(/C=C/C(=O)O)cc2Cl)N1CC(C)(C)F (stereo not shown) [Compound 45]	
	1.3 nM	CC1Cc2c([nH]c3ccc(F)cc23)C(c2c(Cl)cc(/C=C/C(=O)O)cc2Cl)N1CC(C)(F)F (stereo not shown) [Compound 28]	
	0.8 nM	CC1Cc2c(oc3ccccc23)C(c2c(F)cc(OCCN3CC(CF)C3)cc2F)N1CC(C)(C)F (stereo not shown) [Compound 17A]	
0.4 nM		CC(C)(F)CN1C(c2c(F)cc(/C=C/C(=O)O)cc2F)c2[nH]c3ccccc3c2CC1C(F)(F)F (stereo not shown) [Compound 31A]	
7.9 nM		CC1Cc2c(oc3ccccc23)C(c2c(F)cc(/C=C/C(=O)O)cc2F)N1CC(C)(F)F (stereo not shown) [Compound 44A]	
4.7 nM		CC1Cc2c(sc3ccccc23)C(c2c(F)cc(/C=C/C(=O)O)cc2F)N1CC(C)(C)F (stereo not shown) [Compound 48A]	
0.9 nM		C[C@@H]1Cc2c([nH]c3ccccc23)[C@@H](c2c(F)cc(OCCN3CCCCCC3)cc2F)N1CC(C)(F)F [Compound 4]	
1 nM		C[C@@H]1Cc2c([nH]c3ccccc23)[C@@H](c2c(F)cc(/C=C/C(=O)O)cc2F)N1CC1(C)CC1 [Compound 30]	
3.1 nM		C[C@@H]1Cc2c([nH]c3ccccc23)[C@@H](c2c(Cl)cc(OCCN3CC(CF)C3)cc2Cl)N1CC(C)(C)F [Compound 9]	
	0.5 nM	CC1Cc2c([nH]c3ccc(F)cc23)C(c2c(F)cc(OCCN3CC(CF)C3)cc2F)N1CC(C)(C)F (stereo not shown) [Compound 13A]	
	> 100 nM	CC1Cc2c([nH]c3ccc(Cl)cc23)C(c2c(F)cc(/C=C/C(=O)O)cc2F)N1CC(C)(C)F (single isomer, unassigned) [Compound 42B]	
0.7 nM		CC1Cc2c([nH]c3ccc(F)cc23)C(c2c(Cl)cc(/C=C/C(=O)O)cc2Cl)N1CC(C)(C)F (stereo not shown) [Compound 27B]	
0.4 nM		C[C@@H]1Cc2c([nH]c3ccccc23)[C@@H](c2c(F)cc(OCCN3CC(CF)C3)cc2Cl)N1CC(C)(C)F [Compound 11]	Human Hepatocyte Remaining Percentage @ 120 min (%) (pooled human hepatocytes): 83%; hepatocyte CLint at 1 µM [2]: 2 µL/min/1e6 cells; half-life at 1 µM [2]: 11.1 h; CLint scaled at 1 µM [2]: 5.3 mL/min/kg
0.6 nM		C[C@@H]1Cc2c([nH]c3ccccc23)[C@@H](c2c(F)cc(OCCN3CCCCC3)cc2F)N1CC(C)(F)F [Compound 3]	

More lines, now with the values behind:

SMILES	IC50 ([1]; Homo sapiens, MCF7, 144 h)	IC50 [1]	further results
C[C@@H]1Cc2c([nH]c3ccccc23)[C@@H](c2c(F)cc(/C=C/C(=O)O)cc2Cl)N1CC(C)(F)F [Compound 49]	0.5 nM		
CC1Cc2c([nH]c3ccc(Cl)cc23)C(c2c(F)cc(/C=C/C(=O)O)cc2F)N1CC(C)(C)F (single isomer, unassigned) [Compound 42A]		1.9 nM	
CC1Cc2c([nH]c3cc(Cl)ccc23)C(c2c(F)cc(/C=C/C(=O)O)cc2F)N1CC(C)(C)F (stereo not shown) [Compound 43B]	0.8 nM		
CC1Cc2c([nH]c3cc(O)ccc23)C(c2c(F)cc(/C=C/C(=O)O)cc2F)N1CC(C)(C)F (stereo not shown) [Compound 36]	16 nM		
CC1Cc2c([nH]c3ccc(F)cc23)C(c2c(F)cc(/C=C/C(=O)O)cc2F)N1CC(C)(F)F (stereo not shown) [Compound 33A]	1.2 nM		
CC1Cc2c([nH]c3cc(F)ccc23)C(c2c(F)cc(/C=C/C(=O)O)cc2F)N1CC(C)(C)F (stereo not shown) [Compound 34A]			MCF7 ER Degradation at 4 hr (%) (ER): 21%; MCF7 ER Degradation at 24 hr (%) (ER): 20%
CC1Cc2c([nH]c3ccc(O)cc23)C(c2c(F)cc(/C=C/C(=O)O)cc2F)N1CC(C)(C)F (stereo not shown) [Compound 23]		4.2 nM	
CC1Cc2c([nH]c3ccc(F)cc23)C(c2c(Cl)cc(OCCN3CC(CF)C3)cc2Cl)N1CC(C)(C)F (stereo not shown) [Compound 14B]	2.6 nM		
CC1Cc2c(oc3ccccc23)C(c2c(Cl)cc(OCCN3CC(CF)C3)cc2Cl)N1CC(C)(C)F (stereo not shown) [Compound 18]	8.9 nM		
C[C@@H]1Cc2c([nH]c3ccccc23)[C@@H](c2c(F)cc(/C=C/C(=O)O)cc2F)N1CC1(F)CC1 [Compound 24]		1.9 nM	
CCC1Cc2c([nH]c3ccccc23)C(c2c(F)cc(/C=C/C(=O)O)cc2F)N1CC(C)(C)F (single isomer, unassigned) [Compound 40B]		> 100 nM	
CC1Cc2c([nH]c3ncccc23)C(c2c(F)cc(/C=C/C(=O)O)cc2F)N1CC(C)(C)F (stereo not shown) [Compound 32A]	1.9 nM		
CC1Cc2c([nH]c3ncccc23)C(c2c(F)cc(OCCN3CC(CF)C3)cc2F)N1CC(C)(F)F (stereo not shown) [Compound 19A]	3.1 nM		
C[C@@H]1Cc2c([nH]c3ccccc23)[C@@H](c2c(F)cc(OCCN3CCCC3)cc2F)N1CC(C)(F)F [Compound 2]	0.9 nM		
CC(C)CN1C(C)Cc2c([nH]c3ccc(F)cc23)C1c1c(F)cc(/C=C/C(=O)O)cc1F (stereo not shown) [Compound 39A]	2.6 nM		
CCC1Cc2c([nH]c3ccccc23)C(c2c(F)cc(/C=C/C(=O)O)cc2F)N1CC(C)(C)F (single isomer, unassigned) [Compound 40A]		0.9 nM	
COc1ccc2c3c([nH]c2c1)C(c1c(F)cc(/C=C/C(=O)O)cc1F)N(CC(C)(C)F)C(C)C3 (stereo not shown) [Compound 22A]		2.6 nM	
C[C@@H]1Cc2c([nH]c3ccccc23)[C@@H](c2c(Cl)cc(OCCN3CC(CF)C3)cc2Cl)N1CC(C)(F)F [Compound 10]	3.2 nM		
C[C@@H]1Cc2c([nH]c3ccccc23)[C@@H](c2c(F)cc(OCCN3CC(CF)C3)cc2F)N1CC(C)(F)F [Compound 1]		0.3 nM	Human In vitro Clint (μL/min/10^6 cells) (pooled human hepatocytes): 1.6 μL/min/10^6 cells; Human In vitro T1/2 (pooled human hepatocytes): 14.2 h; Human Hepatocyte Remaining Percentage @ 120 min (%) (pooled human hepatocytes): 88%; Human Scale-up Clint (pooled human hepatocytes): 4.1 mL/min/kg
CC1Cc2c([nH]c3ccc(F)cc23)C(c2c(F)cc(/C=C/C(=O)O)cc2F)N1CC(C)(C)F (stereo not shown) [Compound 46A]			MCF7 ER Degradation at 4 hr (%) (ER): 25%; MCF7 ER Degradation at 24 hr (%) (ER): 20%
COc1ccc2[nH]c3c(c2c1)CC(C)N(CC(C)(C)F)C3c1c(F)cc(/C=C/C(=O)O)cc1F (stereo not shown) [Compound 37A]	2.9 nM		
C[C@@H]1Cc2c([nH]c3ccccc23)[C@@H](c2c(F)cc(OCCN3CCCCCC3)cc2F)N1CC(C)(C)F [Compound 8]	1 nM		
C[C@@H]1Cc2c([nH]c3ccccc23)[C@@H](c2c(F)cc(/C=C/C(=O)O)cc2Cl)N1CC(C)(C)F [Compound 20]		0.3 nM	MCF7 ER Degradation at 4 hr (%) (ER): 25%; MCF7 ER Degradation at 24 hr (%) (ER): 21%; Human In vitro Clint (μL/min/10^6 cells) (pooled human hepatocytes): 5.6 μL/min/10^6 cells; Human In vitro T1/2 (pooled human hepatocytes): 4.1 h; Human Hepatocyte Remaining Percentage @ 120 min (%) (pooled human hepatocytes): 70%; Human Scale-up Clint (pooled human hepatocytes): 14 mL/min/kg
CC1Cc2c([nH]c3cc(F)ccc23)C(c2c(F)cc(/C=C/C(=O)O)cc2F)N1CC(C)(F)F (stereo not shown) [Compound 35A]	2.5 nM		
CC(C)(F)CN1C(c2c(F)cc(OCCN3CC(CF)C3)cc2F)c2[nH]c3ccccc3c2CC1C(F)(F)F (stereo not shown) [Compound 16A]		0.6 nM	
COc1ccc2c3c([nH]c2c1)C(c1c(F)cc(OCCN2CC(CF)C2)cc1F)N(CC(C)(C)F)C(C)C3 (stereo not shown) [Compound 15A]	1.8 nM		
